Values after ≈ are worked out from the molar mass of the structure shown.

Conditions in the first series: not given
As for `COC(=O)CS(=O)(=O)c1ccc(Cl)cc1`, the logP is 1.31.

Consider `Cc1ccc(S(=O)(=O)C2(C(=O)OC(C)C)CCCC2)cc1`, for which the logP came to 2.88.

The molecule `COC(=O)CS(=O)(=O)c1ccccc1` showed a lipophilicity (logP) of 0.93.

On to `COC(=O)C1(S(=O)(=O)c2ccc(C)cc2)CCCCC1`, for which the log partition coefficient (logP) turned out to be 2.54.

For `CC(C)OC(=O)CS(=O)(=O)c1ccc(Cl)cc1`, the logP is 2.04.

`COC(=O)CS(=O)(=O)c1ccc(Br)cc1` yielded a logP of 1.52.

Staying with this series, now noted: 25 °C.
In turn, `COC(=O)C1(S(=O)(=O)c2ccc([N+](=O)[O-])cc2)CC1` yielded a solubility of 417 µM (≈ 119 µg/mL).

Take `COC(=O)C1(S(=O)(=O)c2ccc(Cl)cc2)CCC1`: the solubility was 1000 µM (≈ 289 µg/mL).

`CC(C)OC(=O)C1(S(=O)(=O)c2ccc([N+](=O)[O-])cc2)CC1` showed a solubility of 54.9 µM (≈ 17.2 µg/mL).

Regarding `COC(=O)C1(S(=O)(=O)c2ccc(Br)cc2)CC1`, the solubility was 214 µM (≈ 68.2 µg/mL).

Molecule `COC(=O)C1(S(=O)(=O)c2ccc(Br)cc2)CCC1` showed a solubility of 282 µM (≈ 93.9 µg/mL).

Turning to `CC(C)OC(=O)C1(S(=O)(=O)c2ccc(Cl)cc2)CCCC1`, the solubility is 22.4 µM (≈ 7.41 µg/mL).

`Cc1ccc(S(=O)(=O)C2(C(=O)OC(C)C)CC2)cc1` gave a solubility of 588 µM (≈ 166 µg/mL).

For the molecule `COC(=O)C1(S(=O)(=O)c2ccc(Cl)cc2)CC1`, the solubility was 491 µM (≈ 135 µg/mL).

In turn, `CCOC(=O)C1(S(=O)(=O)c2ccc(C)cc2)CCC1` displayed a solubility of 1100 µM (≈ 310 µg/mL).

In turn, `COC(=O)C1(S(=O)(=O)c2ccc(Br)cc2)CCCCC1` showed a solubility of 33.2 µM (≈ 12 µg/mL).

Molecule `CC(C)(C)OC(=O)C1(S(=O)(=O)c2ccc(Cl)cc2)CC1` yielded a solubility of 75.8 µM (≈ 24 µg/mL).

Molecule `CC(C)OC(=O)C1(S(=O)(=O)c2ccc([N+](=O)[O-])cc2)CCCCCC1` had a solubility of 8.5 µM (≈ 3.14 µg/mL).

For the molecule `COC(=O)C1(S(=O)(=O)c2ccccc2)CCC1`, the solubility worked out at 999 µM (≈ 254 µg/mL).

In the case of `COC(=O)C1(S(=O)(=O)c2ccc(C)cc2)CC1`, the solubility was 1320 µM (≈ 335 µg/mL).

For the molecule `CC(C)OC(=O)C1(S(=O)(=O)c2ccc([N+](=O)[O-])cc2)CCC1`, the solubility amounted to 174 µM (≈ 56.9 µg/mL).

Molecule `COC(=O)C1(S(=O)(=O)c2ccccc2)CC1` registered a solubility of 5490 µM (≈ 1320 µg/mL).

`COC(=O)C1(S(=O)(=O)c2ccccc2)CCCCC1` yielded a solubility of 1410 µM (≈ 399 µg/mL).

On to `CC(C)OC(=O)C1(S(=O)(=O)c2ccc(Cl)cc2)CC1`, for which the solubility amounted to 288 µM (≈ 87.3 µg/mL).

The molecule `COC(=O)C1(S(=O)(=O)c2ccccc2)CCCC1` registered a solubility of 2820 µM (≈ 756 µg/mL).

`CCOC(=O)C1(S(=O)(=O)c2ccc(C)cc2)CC1` displayed a solubility of 976 µM (≈ 262 µg/mL).

As for `COC(=O)C1(S(=O)(=O)c2ccc(Br)cc2)CCCC1`, the solubility came to 97.6 µM (≈ 33.9 µg/mL).

The record behind these values is the OPERA property sets (Mansouri et al. 2018).
